What was measured:
Assay type in all cases: in vivo
[1] = test system: barnyardgrass (Echinochloa crus-galli); assay: Test G Pre-Emergence Protocol; details: Echinochloa crus-galli, pre-emergence, 312 h, evaluated after 13 days
How it was run: (§1)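 One day after sowing, pots are treated with a spray of test compound formulated in acetone/water 50:50 plus 0.5% Tween 20, giving 15.625, 62.5 or 250 g/ha. Evaluation on a 0–100 damage scale follows 13 days of glasshouse growth.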

corn (Zea mays) [2] = assay: Test G Pre-Emergence Protocol; details: Zea mays, pre-emergence, 312 h, evaluated after 13 days
How it was run: as §1

[3] = test system: giant foxtail (Setaria faberi); assay: Test G Pre-Emergence Protocol; details: Setaria faberi, pre-emergence, 312 h, evaluated after 13 days
How it was run: as §1

[4] = test system: ivy-leaved morning glory (Ipomoea hederacea); assay: Test G Pre-Emergence Protocol; details: Ipomoea, pre-emergence, 312 h, evaluated after 13 days
How it was run: as §1

[5] = test system: redroot pigweed (Amaranthus retroflexus); assay: Test G Pre-Emergence Protocol; details: Amaranthus retroflexus, pre-emergence, 312 h, evaluated after 13 days
How it was run: as §1

[6] = test system: velvetleaf (Abutilon theophrasti); assay: Test G Pre-Emergence Protocol; details: Abutilon theophrasti, pre-emergence, 312 h, evaluated after 13 days
How it was run: as §1

[7] = test system: barnyardgrass (Echinochloa crus-galli); assay: Test G Post-Emergence Protocol; details: Echinochloa crus-galli, post-emergence, 312 h
How it was run: (§2)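 A glasshouse post-emergence test: 8-day-old plants sprayed at 15.625, 62.5 or 250 g/ha, then grown at 24/16 °C day/night with 14 h light and 65% humidity. Damage rated 13 days later, 0–100.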

corn (Zea mays) [8] = assay: Test G Post-Emergence Protocol; details: Zea mays, post-emergence, 312 h
How it was run: as §2

[9] = test system: giant foxtail (Setaria faberi); assay: Test G Post-Emergence Protocol; details: Setaria faberi, post-emergence, 312 h
How it was run: as §2

[10] = test system: ivy-leaved morning glory (Ipomoea hederacea); assay: Test G Post-Emergence Protocol; details: Ipomoea, post-emergence, 312 h
How it was run: as §2

[11] = test system: redroot pigweed (Amaranthus retroflexus); assay: Test G Post-Emergence Protocol; details: Amaranthus retroflexus, post-emergence, 312 h
How it was run: as §2

[12] = test system: velvetleaf (Abutilon theophrasti); assay: Test G Post-Emergence Protocol; details: Abutilon theophrasti, post-emergence, 312 h
How it was run: as §2

CN1C[C@H](c2ccc(C(F)(F)F)cc2)[C@@H](C(=O)Nc2cccc3nsnc23)C1=O (racemic) [Compound 1430]
0%: pest or weed control at 15.625 g/ha ([1]; 15.625 g ai/ha, read-out: Barnyard grass damage rating (100=total damage to plant; 0=no damage to plant)) | plant injury at 15.625 g/ha (corn (Zea mays) [2]; 15.625 g ai/ha, read-out: Corn damage rating (100=total damage to plant; 0=no damage to plant)) | plant injury at 62.5 g/ha (corn (Zea mays) [2]; 62.5 g ai/ha, 100=total damage to plant, 0=no damage to plant, read-out: plant damage rating, Corn) | plant injury at 250 g/ha (corn (Zea mays) [2]; 250 g ai/ha, read-out: Corn damage rating (100=total damage to plant; 0=no damage to plant)) | pest or weed control at 15.625 g/ha ([4]; 15.625 g ai/ha, read-out: Morning-glory, Ivy-leaved damage rating (100=total damage to plant; 0=no damage to plant)) | pest or weed control at 62.5 g/ha ([4]; 62.5 g ai/ha, 100=total damage to plant, 0=no damage to plant, read-out: plant damage rating, Morningglory, Ivy-leaved) | pest or weed control at 250 g/ha ([4]; 250 g ai/ha, read-out: Morningglory, Ivy-leaved damage rating (100=total damage to plant; 0=no damage to plant)) | pest or weed control at 15.625 g/ha ([5]; 15.625 g ai/ha, read-out: Pigweed, Redroot damage rating (100=total damage to plant; 0=no damage to plant)) | pest or weed control at 62.5 g/ha ([5]; 62.5 g ai/ha, 100=total damage to plant, 0=no damage to plant, read-out: plant damage rating, Pigweed, Redroot) | pest or weed control at 250 g/ha ([5]; 250 g ai/ha, read-out: Pigweed, Redroot damage rating (100=total damage to plant; 0=no damage to plant)) | pest or weed control at 15.625 g/ha ([6]; 15.625 g ai/ha, read-out: Velvetleaf damage rating (100=total damage to plant; 0=no damage to plant)) | pest or weed control at 62.5 g/ha ([6]; 62.5 g ai/ha, 100=total damage to plant, 0=no damage to plant, read-out: plant damage rating, Velvetleaf) | pest or weed control at 250 g/ha ([6]; 250 g ai/ha, read-out: Velvetleaf damage rating (100=total damage to plant; 0=no damage to plant)) | pest or weed control at 15.625 g/ha ([7]; 15.625 g ai/ha, evaluated after 13 days (100=total damage to plant; 0=no damage to plant), read-out: Barnyardgrass damage rating) | pest or weed control at 62.5 g/ha ([7]; 62.5 g ai/ha, evaluated after 13 days, read-out: Barnyardgrass damage rating (100=total damage to plant; 0=no damage to plant)) | plant injury at 15.625 g/ha (corn (Zea mays) [8]; 15.625 g ai/ha, evaluated after 13 days (100=total damage to plant; 0=no damage to plant), read-out: Corn damage rating) | plant injury at 62.5 g/ha (corn (Zea mays) [8]; 62.5 g ai/ha, evaluated after 13 days, read-out: Corn damage rating (100=total damage to plant; 0=no damage to plant)) | plant injury at 250 g/ha (corn (Zea mays) [8]; 250 g ai/ha, evaluated after 13 days, read-out: damage to plant, Corn (100=total damage to plant; 0=no damage to plant)) | pest or weed control at 15.625 g/ha ([9]; 15.625 g ai/ha, evaluated after 13 days (100=total damage to plant; 0=no damage to plant), read-out: Foxtail, Giant damage rating) | pest or weed control at 15.625 g/ha ([10]; 15.625 g ai/ha, evaluated after 13 days (100=total damage to plant; 0=no damage to plant), read-out: Morningglory, Ivy-leaved damage rating) | pest or weed control at 62.5 g/ha ([10]; 62.5 g ai/ha, evaluated after 13 days, read-out: Morningglory, Ivy-leaved damage rating (100=total damage to plant; 0=no damage to plant)) | pest or weed control at 250 g/ha ([10]; 250 g ai/ha, evaluated after 13 days, read-out: damage to plant, Morningglory, Ivy-leaved (100=total damage to plant; 0=no damage to plant)) | pest or weed control at 15.625 g/ha ([11]; 15.625 g ai/ha, evaluated after 13 days (100=total damage to plant; 0=no damage to plant), read-out: Pigweed, Redroot damage rating) | pest or weed control at 62.5 g/ha ([11]; 62.5 g ai/ha, evaluated after 13 days, read-out: Pigweed, Redroot damage rating (100=total damage to plant; 0=no damage to plant)) | pest or weed control at 15.625 g/ha ([12]; 15.625 g ai/ha, evaluated after 13 days (100=total damage to plant; 0=no damage to plant), read-out: Velvetleaf damage rating) | pest or weed control at 62.5 g/ha ([12]; 62.5 g ai/ha, evaluated after 13 days, read-out: Velvetleaf damage rating (100=total damage to plant; 0=no damage to plant)) | pest or weed control at 250 g/ha ([12]; 250 g ai/ha, evaluated after 13 days, read-out: damage to plant, Velvetleaf (100=total damage to plant; 0=no damage to plant))
10%: pest or weed control at 15.625 g/ha ([3]; 15.625 g ai/ha, read-out: Foxtail, Giant damage rating (100=total damage to plant; 0=no damage to plant)) | pest or weed control at 62.5 g/ha ([9]; 62.5 g ai/ha, evaluated after 13 days, read-out: Foxtail, Giant damage rating (100=total damage to plant; 0=no damage to plant))
30%: pest or weed control at 250 g/ha ([7]; 250 g ai/ha, evaluated after 13 days, read-out: damage to plant, Barnyardgrass (100=total damage to plant; 0=no damage to plant))
20%: pest or weed control at 62.5 g/ha ([1]; 62.5 g ai/ha, 100=total damage to plant, 0=no damage to plant, read-out: plant damage rating, Barnyardgrass) | pest or weed control at 250 g/ha ([11]; 250 g ai/ha, evaluated after 13 days, read-out: damage to plant, Pigweed, Redroot (100=total damage to plant; 0=no damage to plant))
80%: pest or weed control at 250 g/ha ([3]; 250 g ai/ha, read-out: Foxtail, Giant damage rating (100=total damage to plant; 0=no damage to plant))
60%: pest or weed control at 250 g/ha ([1]; 250 g ai/ha, read-out: Barnyardgrass damage rating (100=total damage to plant; 0=no damage to plant))
50%: pest or weed control at 62.5 g/ha ([3]; 62.5 g ai/ha, 100=total damage to plant, 0=no damage to plant, read-out: plant damage rating, Foxtail, Giant) | pest or weed control at 250 g/ha ([9]; 250 g ai/ha, evaluated after 13 days, read-out: damage to plant, Foxtail, Giant (100=total damage to plant; 0=no damage to plant))

Reference: patent US12077503B2, “Substituted cyclic amides and their use as herbicides” (FMC CORPORATION, priority 2015, dated 2024)
